{"source": "patent US20160052936A1", "about": "“SPIROINDOLINE DERIVATIVES FOR USE AS GONADOTROPIN-RELEASING HORMONE RECEPTOR ANTAGONISTS” (BAYER PHARMA AKTIENGESELLSCHAFT, priority 2013, published 2016)", "key": {"human GnRHR": {"target": "T1, human GnRHR (Homo sapiens, UniProt P30968)", "T1 construct": "own knowledge: Tag-lite cells usually carry an N-terminal SNAP-tag fusion; host or cells: Hek293 cells, transiently transfected, supplied frozen", "T1 sequence (P30968 1-328)": "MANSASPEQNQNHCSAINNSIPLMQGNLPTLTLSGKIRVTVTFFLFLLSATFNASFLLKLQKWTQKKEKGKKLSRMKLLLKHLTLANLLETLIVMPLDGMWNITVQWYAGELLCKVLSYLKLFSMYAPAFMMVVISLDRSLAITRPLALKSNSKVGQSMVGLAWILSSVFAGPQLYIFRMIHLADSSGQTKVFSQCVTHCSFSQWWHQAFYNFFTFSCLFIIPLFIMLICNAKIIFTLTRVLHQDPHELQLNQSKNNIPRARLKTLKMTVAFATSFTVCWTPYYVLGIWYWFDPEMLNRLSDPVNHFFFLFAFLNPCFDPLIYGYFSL", "assay": "Tag-Lite receptor binding assay", "conditions": "Hek293 cells transiently transfected with human GnRHR; displacement of green-labelled GnRHR binding peptide; read-out: Potency in receptor binding assay using TAG-LITE technology, given as IC50", "text": "2.2. Tag-Lite® Receptor Binding Assay\nThis binding assay is based on the fluorescence resonance energy transfer between fluorescence donor labelled human GnRHR and a green-labelled GnRHR binding peptide. Compounds interfering with the ligand binding side of the human GnRHR will replace the labelled peptide resulting in a signal decrease. The assay principle was established by Cisbio Bioassays (Bagnols-sur-Cèze Cedex, France) and further details are available on their homepage.\nThe assay procedure was further optimized for use in-house with reduced assay volumes. Frozen Hek293 cells, transiently transfected with human GnRHR and Terbium-labelling of the receptor, were supplied by Cisbio Bioassays as well as Tag-Lite buffer and green-labelled GnRHR binding peptide. Cells were thawed and transferred to cold Tag-Lite buffer. A volume of 8 μl of this cell suspension were added to 100 nl of a 160-fold concentrated solution of the test compound in DMSO pre-dispensed in a well of a white low-volume 384-well microtiter plate (Greiner Bio-One, Frickenhausen, Germany). The mixture was incubated for 5 min at room temperature. In the next step either 4 μl Tag-Lite buffer or as control 4 μl of an exceeding amount unlabelled binding peptide in Tag-Lite buffer were transferred to the mixture. The green-labelled GnRHR binding peptide was added in a final step at EC50 in a volume of 4 μl Tag-Lite buffer. After an incubation of 1 h at room temperature plates were measured in a microplate reader, e.g. a PHERAstar (BMG Labtechnologies, Offenburg, Germany) by using a specific optic module.\nA ratio from the fluorescence emissions at 520 nm (green fluorescence) and at 490 nm (background signal of Terbium-labelled GnRHR) was calculated and the data were normalized (reaction without test compound=0% inhibition of binding of green-labelled peptide; reaction without test compound with exceeding amount unlabelled binding peptide=100% inhibition of binding of green-labelled peptide). On the same microtiter plate, compounds were tested at 10 different concentrations in the range of 12.5 μM to 0.64 nM (12.5 μM, 4.2 μM, 1.4 μM, 0.46 μM, 0.15 μM, 51 nM, 17 nM, 5.7 nM, 1.9 nM and 0.64 nM; dilution series prepared before the assay at the level of the 160-fold conc. stock solutions by serial 1:3 dilutions in 100% DMSO) in duplicate values for each concentration. By using an in-house software, the IC50 values were calculated by a 4 parameter fit."}, "human GnRH receptor": {"target": "T2, human GnRH receptor (Homo sapiens, UniProt P30968)", "T2 construct": "host or cells: CHO cells stably expressing human GnRH receptor (line established by Prof. Thomas Gudermann)", "T2 sequence (P30968 1-328)": "T1 sequence (P30968 1-328)", "assay": "IP-One HTRF assay with buserelin stimulation", "format": "cell-based", "conditions": "CHO cells stably expressing human GnRH receptor; buserelin at EC80; read-out: Potency in IP-One HTRF assay with buserelin (at EC80) stimulation, given as IC50", "text": "By using homogenous time-resolved fluorescence resonance energy transfer (HTRF), the generation of one component of the GnRH-R signalling cascade can be measured. After stimulation of CHO cells stably expressing human GnRH receptor (established by Prof. Thomas Gudermann, currently University of Marburg, Germany; supplied as frozen cell aliquots by Cell Culture Services, Hamburg, Germany) with the EC80 of the GnRH agonist buserelin, Gq protein-coupled receptor signalling cascade is activated resulting in PLC-dependent cleavage of PIP2 to Inositol-1,4,5-triphosphate (IP3) and Diacylglycerol. The second messenger IP3 is degraded intracellularly to myo-inositol. Inhibition of the final degradation step from Inositol-1-phosphate (IP1) to myo-inositol by addition of lithium chloride leads to accumulation of IP1 in the cells. In cell lysates, IP1 can be detected via an antibody-based HTRF detection technology, where IP1 can displace the FRET acceptor IP1-d2 from binding by Terbium-labelled anti-IP1 antibody as donor resulting in a signal decrease. Compounds were tested for their capability of inhibiting GnRH-R activation by buserelin. For all IP-One HTRF® assays reagents of Cisbio Bioassays (IP-One Tb Jumbo kit, #62IPAPEJ; Cisbio Bioassays, Bagnols sur Cèze Cedex, France) were used.\nFor the assay, frozen cell aliquots were thawed and a cell suspension (3.33×10^6 cells/mL) containing IP1-d2 (dilution 1:40) was prepared and incubated at 37° C. After 1 h 3 μl of the cell suspension were added to 50 nl of a 100-fold concentrated solution of the test compound in DMSO pre-dispensed in a well of a white low-volume 384-well microtiter plate (Greiner Bio-One, Frickenhausen, Germany). […] Plates were incubated for 1 h at 37° C. and 5% carbon dioxide before the cells were lysed by adding 3 μl Terbium-labelled anti-IP1 antibody (1:40) diluted in Conjugate & Lysis buffer as supplied with the kit. After an incubation for 1 h at 22° C. to enable complete cell lysis and antibody binding to free IP1 or IP1-d2, plates were measured in an HTRF reader, e.g. a RUBYstar, PHERAstar (both BMG Labtechnologies, Offenburg, Germany) or a Viewlux (PerkinElmer LAS, Rodgau-Jügesheim, Germany).\nFrom the fluorescence emissions at 665 nm (FRET) and at 620 nm (background signal of Terbium-antibody), the ratio (emission at 665 nm divided by emission at 620 nm) was calculated and the data were normalized (reaction without test compound=0% inhibition; all other assay components except agonist=100% inhibition). On the same microtiter plate, compounds were tested at 10 different concentrations in the range of 20 μM to 1 nM (20 μM, 6.7 μM, 2.2 μM, 0.74 μM, 0.25 μM, 82 nM, 27 nM, 9.2 nM, 3.1 nM and 1 nM; dilution series prepared before the assay at the level of the 100-fold conc. stock solutions by serial 1:3 dilutions in 100% DMSO) in duplicate values for each concentration. By using an in-house software, the IC50 values were calculated by a 4 parameter fit.\nWithin the meaning of the present invention the antagonist activity is reflected by the ability of a compound of the invention to antagonize human GnRH receptor stimulation in IP-One HTRF® assay at least three times the standard deviation over the background level."}, "[1]": {"test_system": "LH level in ovariectomized rats", "assay": "LH suppression in the ovariectomized rat", "format": "in vivo", "conditions": "0.1 mg/kg i.p., 8 hours", "text": "2.5. LH Suppression in the Ovariectomized Rat\nThe in vivo potency of GnRH antagonists can be quantified by a LH suppression test in ovariectomized rats. GnRH triggers the LH release from the pituitary mediated by GnRH receptors. Ovarectomy of adult female rats results in elevated levels of circulating LH due to a lack of negative feedback by gonadal steroids. GnRH antagonists suppress the release of LH and accordingly suppression of LH levels can be used to quantify the in vivo potency of GnRH antagonists.\nFemale adult rats were ovariectomized surgically and they were allowed to recover for at least one week. The animals received 0.5 mg/kg, 3 mg/kg or 10 mg/kg of Example 3.1 by single per oral administration. For comparison reasons a vehicle control and a positive control, 0.1 mg/kg cetrorelix (i.p.), were given once. At 0 min, 15 min, 30 min, 1 hour, 2 hours, 4 hours, 8 hours and 24 hours after compound administration blood was taken from the retro orbital plexus (n=6 per blood withdrawal) for the measurement of serum LH and serum compound levels.\nAs nonbinding explanatory example of compounds according to the invention FIG. 1 represents the LH level following administration of the compound according to Example 3.1, to ovariectomized adult rats. [Filled circle: Vehicle; Circle, dotted black line: Cetrorelix (0.1 mg/kg); Triangle: Example 3.1 (0.5 mg/kg); Reverse triangle: Example 3.1 (3 mg/kg); Diamond: Example 3.1 (10 mg/kg)]. Values are given as mean+standard deviation (n=6)."}}, "note": "Non-standard residues stand in square brackets, D forms with d. Residues, ends and D or L forms follow the SMILES beside them. dPhe(4-Cl) = N[C@H](Cc1ccc(Cl)cc1)C(=O)O; d2Nal = N[C@H](Cc1ccc2ccccc2c1)C(=O)O; dCit = NC(=O)NCCC[C@@H](N)C(=O)O; d3Pal = N[C@H](Cc1cccnc1)C(=O)O", "data": [{"smiles": "N#Cc1ccc(S(=O)(=O)N2c3ccc(C(=O)NCc4ncc(C(F)(F)F)cc4Cl)cc3C3(CCS(=O)(=O)CC3)C2C2CC2)cc1", "note": "(racemic) [Example 8, N-{[3-chloro-5-(trifluoromethyl)pyridin-2-yl]methyl}-1-[(4-cyanophenyl)sulfonyl]-2-cyclopropyl-1,2,2′,3′,5′,6′-hexahydrospiro[indole-3,4′-thiopyran]-5-carboxamide 1′,1′-dioxide]", "values": [{"measurement": "IC50", "setting": "human GnRHR", "value": 21.7, "unit": "nM"}, {"measurement": "IC50", "setting": "human GnRH receptor", "value": 22, "unit": "nM"}]}, {"smiles": "CC(=O)N[C@H](Cc1ccc2ccccc2c1)C(=O)N[C@H](Cc1ccc(Cl)cc1)C(=O)N[C@H](Cc1cccnc1)C(=O)N[C@@H](CO)C(=O)N[C@@H](Cc1ccc(O)cc1)C(=O)N[C@H](CCCNC(N)=O)C(=O)N[C@@H](CC(C)C)C(=O)N[C@@H](CCCNC(=N)N)C(=O)N1CCC[C@H]1C(=O)N[C@H](C)C(N)=O", "note": "[cetrorelix, reference compound] (Ac-[d2Nal][dPhe(4-Cl)][d3Pal]SY[dCit]LRP[dA]-NH2)", "values": [{"measurement": "LH suppression", "setting": "[1]", "value": "ca. 90%"}]}]}
